Experimental findings from publication PMC11850406, “Large-scale screening of HIV-1 T-cell epitopes restricted by 12 prevalent HLA-A allotypes in Northeast Asia and universal detection of HIV-1-specific CD8^+ T cells” (Frontiers in Microbiology, 2025) are described below.

For orientation: inhibition means the drop in the measured response relative to a control, in per cent.

Where two headings read alike, the source gives them in different places. Where no end group is shown, it is not given here.

The target of experiment [1] is T1, HLA-A0101 (Homo sapiens, UniProt P04439, A114D/A174V/A182V/D101N/D185E/E176A/E190D/L180R/Q94H/R68K/S129P/T187R/V100A/V91M/W191G).
T1 construct: expressed in transfected cells; host or cells: HMy2.CIR
Briefly: Peptide competitive binding assay, HMy2.CIR cells expressing A0101. The note with it: for inhibition at 5 µM / inhibition at 15 µM: 24 h; for inhibition at 5 µM: read-out: 5-μM inhibition (%); for inhibition at 15 µM: read-out: 15-μM inhibition (%).

In experiment [2] the target is T2, HLA-A0301 (Homo sapiens, UniProt P04439).
T2 construct: expressed in transfected cells; host or cells: HMy2.CIR
T2 sequence (P61769 21-119): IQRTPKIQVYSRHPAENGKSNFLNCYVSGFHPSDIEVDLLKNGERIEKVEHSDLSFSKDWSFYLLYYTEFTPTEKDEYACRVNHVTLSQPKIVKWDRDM
T2 sequence (P04439 25-365): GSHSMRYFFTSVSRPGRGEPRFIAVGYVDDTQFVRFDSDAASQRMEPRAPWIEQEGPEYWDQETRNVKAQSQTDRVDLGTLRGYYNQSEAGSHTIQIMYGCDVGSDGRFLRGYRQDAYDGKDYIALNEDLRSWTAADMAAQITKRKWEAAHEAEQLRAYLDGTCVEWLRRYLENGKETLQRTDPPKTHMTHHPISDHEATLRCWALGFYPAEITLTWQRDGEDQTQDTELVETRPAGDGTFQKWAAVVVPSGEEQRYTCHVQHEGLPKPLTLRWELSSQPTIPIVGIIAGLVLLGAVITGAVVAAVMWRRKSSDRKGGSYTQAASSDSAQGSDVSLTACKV
In words: cell-based. The note with it: for inhibition at 5 µM: read-out: 5-μM inhibition (%); for inhibition at 15 µM: read-out: 15-μM inhibition (%). The format is binding.

For experiment [3], the target named is T3, HLA-A3001 (Homo sapiens, UniProt P04439, D140H/D185E/E176W/F33S/G80R/H175R/K168Q/R138E/R41S).
T3 construct: expressed in transfected cells; host or cells: HMy2.CIR
In words: cell-based. The class given is binding. The note with it: for inhibition at 5 µM / inhibition at 15 µM: 24 h; for inhibition at 5 µM: read-out: 5-μM inhibition (%); for inhibition at 15 µM: read-out: 15-μM inhibition (%).

Experiment [4] concerns the target HLA-A1102 (Homo sapiens, UniProt P04439, A114D/D185E/E176A/E43K/F33Y/L180Q/S129P/T187R). Briefly: cell-based. The class given is binding. Particulars: A1102, 24 h, 4°C, flow cytometry.
Experiment [5] has as its target T4, HLA-A1101 (Homo sapiens, UniProt P04439, A114D/D185E/E176A/F33Y/L180Q/S129P/T187R).
T4 construct: expressed in transfected cells; host or cells: HMy2.CIR
In words: cell-based. The class given is binding.

[6] abbreviates: A0101, peptide 5 μM vs FITC-labeled reference peptide 300 nM, 4°C, flow cytometry.
[7] abbreviates: A0101, peptide 15 μM vs FITC-labeled reference peptide 300 nM, 4°C, flow cytometry.
Where [8] appears, read: A0301, peptide 5 μM vs FITC-labeled reference peptide 300 nM, 24 h, 4°C, flow cytometry.
[9] abbreviates: A0301, peptide 15 μM vs FITC-labeled reference peptide 300 nM, 24 h, 4°C, flow cytometry.

Sequence of HLA-A1102 (P04439 25-365 limits assumed, stated change not applied): as the sequence (P04439 25-365) above

For VTDSQYALGI [Peptide P69], in experiment [1] (setting [6]), the inhibition at 5 µM was 35.6%. In addition, in experiment [1] (setting [7]), the inhibition at 15 µM turned out to be 71.2%. Besides, the IC50 in experiment [1] (read-out: Affinity) was 5 to 15 µM.

In the case of LLYWGQELK [Peptide P84], the IC50 in experiment [2] is 5 to 15 µM. In addition, the inhibition at 5 µM in experiment [2] (setting [8]) came to 25.7%. Further, the inhibition at 15 µM in experiment [2] (setting [9]) came out at 56.2%.

Consider KLVSSGIRK [Peptide P85], for which, in experiment [2] (setting [8]), the “5-μM inhibition (%)” value was 19.14%. The “15-μM inhibition (%)” value in experiment [2] (setting [9]) is recorded as 38.04%.

Consider EADGKVSQNY [Peptide P67], for which, in experiment [1], the IC50 lay within 5 to 15 µM, the inhibition at 5 µM stood at 21.4% and the inhibition at 15 µM amounted to 62%.

For YSENSSEYY [Peptide P68], the IC50 in experiment [1] (A0101, class from inhibition at 5 and 15 μM of FITC-labeled reference peptide binding, read-out: Affinity) is less than 5 µM. Also, the inhibition at 5 µM in experiment [1] (setting [6]) was 83.8%. Further, in experiment [1] (setting [7]), the inhibition at 15 µM came out at 94.2%.

For the molecule KLAGRWPVK [Peptide P95], the figures for the IC50 in experiment [3] and in experiment [2] were less than 5 µM and 5 to 15 µM, respectively. Besides, the inhibition at 5 µM in experiment [3] (A3001, peptide 5 μM vs FITC-labeled reference peptide 300 nM, 4°C, flow cytometry) amounted to 83.7%; in experiment [2] (setting [8]) it was 28.9%. Further, the inhibition at 15 µM in experiment [3] (A3001, peptide 15 μM vs FITC-labeled reference peptide 300 nM, 4°C, flow cytometry) is 95.9%; in experiment [2] (setting [9]), 53.7%.

Turning to `CC[C@H](C)[C@H](NC(=O)[C@H](C)N)C(=O)N[C@@H](Cc1ccccc1)C(=O)N[C@@H](CCC(N)=O)C(=O)N[C@@H](CO)C(=O)N[C@@H](CO)C(=O)N[C@@H](CCSC)C(=O)N[C@H](C(=O)N[C@@H](CCCCN)C(=O)O)[C@@H](C)O` [Peptide P40], the inhibition at 5 µM in experiment [4] (peptide 5 μM vs FITC-labeled reference peptide 300 nM, read-out: 5-μM inhibition (%)) turned out to be 2.89%; in experiment [3], 60.4%; in experiment [5] (A1101, peptide 5 μM vs FITC-labeled reference peptide 300 nM, 24 h, 4°C, flow cytometry, read-out: 5-μM inhibition (%)) it was 67.9%; in experiment [2] (24 h), 22.4%. Further, the inhibition at 15 µM in experiment [4] (peptide 15 μM vs FITC-labeled reference peptide 300 nM, read-out: 15-μM inhibition (%)) worked out at 16.1%; in experiment [3], 67.7%; in experiment [5] (A1101, peptide 15 μM vs FITC-labeled reference peptide 300 nM, 24 h, 4°C, flow cytometry, read-out: 15-μM inhibition (%)), 89.5%; in experiment [2] (24 h) it was 50.6%. The IC50 in experiment [3] was less than 5 µM; in experiment [5], less than 5 µM; in experiment [2] it was 5 to 15 µM.
